Converted amounts (≈) assume the structure as drawn. “And” between values parts separate entries of the source, which are not always exact repeats. Identical values can stand only once. Like-named read-outs stand apart in the source and are kept apart here.
Columns and labels:
[1] = Rotating disk electrode and cyclic voltammetry on glassy carbon, 1 mM compound in 1 M sulfuric acid; format: physicochemical; conditions: for Diffusion Coefficient, (cm^2 s^-1): Levich plot; for Transfer Coefficient, an: Tafel analysis; for Exchange Current Density, (A cm^-2): glassy carbon RDE; for Rate Constant, k°: obtained from exchange current density
Experimental: Measurement of kinetic parameters and diffusion coefficients was conducted in a three-electrode cell consisting of a rotating glassy carbon disk working electrode, a platinum wire counter electrode, and a mercury/mercuric sulfate reference electrode (E° = +0.65 V). […] The solutions were de-aerated and kept under a blanket of argon gas throughout all the experiments. All measurements were conducted in the potentiodynamic mode (Versastat 300 potentiostat) at a scan rate of 5 mV s^-1 over a range of rotation rates (500 rpm to 3000 rpm). Impedance measurements were also made at each rotation rate. Cyclic voltammetry was conducted on a static glassy carbon electrode at a scan rate of 50 mV s^-1.
Where n is the number of electrons transferred, F, the Faraday constant, A, electrode area, Do, the diffusion coefficient, v, the kinematic viscosity of the solution and C*, the bulk concentration of the reactants. For n = 2, an active electrode area of 0.1925 cm^2, and a kinematic viscosity of the electrolyte of 0.01 cm^2 s^-1, we were able to evalulate the diffusion coefficient from the slope of the straight line plots in FIG. 11D.
To determine the kinetic parameters for the charge-transfer process, namely the rate constant and the apparent transfer coeffcient, the logarithm of the kinetic current (after correction for mass-transport losses) was plotted against the observed overpotentials greater than 100 mV, where the Tafel equation is applicable (Eq. 4 and FIG. 11E).
Where I is the current, Ilim is the limiting current, Iex is the exchange current density, Co and CR are the concentration of the oxidized and reduced species at the surface of the electrode, Co* and CR* are the bulk concentrations of the oxidized and reduced species, α is the transfer coefficient, n is the number of electrons transferred, F is the Faraday constant, E-Erev is the overpotential, R is the gas constant, and T is the temperature. The rate constant, ko , was obtained from the exchange current density (Eq. 5).
Where n is the number of electrons transferred, F, the Faraday constant, A, electrode area, Do, the diffusion coefficient, v, the kinematic viscosity of the solution and C*, the bulk concentration of the reactants. For n = 2, an active electrode area of 0.1925 cm^2, and a kinematic viscosity of the electrolyte of 0.01 cm^2 s^-1, we were able to evalulate the diffusion coefficient from the slope of the straight line plots.
To determine the kinetic parameters for the charge-transfer process, namely the rate constant and the apparent transfer coeffcient, the logarithm of the kinetic current (after correction for mass-transport losses) was plotted against the observed overpotentials greater than 100 mV, where the Tafel equation derived from the Butler-Volmer Equation is applicable : […]
Where I is the current, Ilim is the limiting current, Iex is the exchange current density, Co and CR are the concentration of the oxidized and reduced species at the surface of the electrode, Co* and CR* are the bulk concentrations of the oxidized and reduced species, α is the transfer coefficient, n is the number of electrons transferred, F is the Faraday constant, E-Erev is the overpotential, R is the gas constant, and T is the temperature. The rate constant, ko , was obtained from the exchange current density using the relationship

[2] = in water, 25° C; cited from earlier work
[3] = Solubility
[4] = Cyclic voltammetry in mixed solvent (DMF/water); format: physicochemical; conditions: DMF/water (80% DMF/20%Water for TYLENOL)
[5] = cited from earlier work
[6] = Cyclic voltammetry in 1 M potassium hydroxide; format: physicochemical
[7] = Table 5, MSE E°=+0.65 V, 1 M sulfuric acid
[8] = Table 7, listed as Anthraquinone sulfonic acid

O=c1[nH][nH]c(=O)c2ccccc12 [Phthalyl hydrazide]
Diffusion Coefficient (cm2/sec) ([1]; Table 7): 1.07E-6 cm2/sec | Exchange Current density (A/cm^2) ([1]; Table 7): 3.03E-6 A/cm^2 | Tafel Slope, mV/decade, dη/d(log I) ([1]; Table 7): 40 mV/decade | E½ vs. MSE, Volt ([1]; Table 7, 1 M sulfuric acid): 0.5 Volt

O=C1C=C(S(=O)(=O)O)C=C(S(=O)(=O)O)C1=O [benzoquinone disulfonic acid]
solubility [2]: 1700 mM (≈ 456 mg/mL)

O=S(=O)(O)c1cc(O)ccc1O [Hydroquinone sulfonic acid]
Standard Reduction Potentials: E°(formal) Measured ([1]; 1 M sulfuric acid): 0.70 | Diffusion Coefficient, (cm^2 s^-1) ([1]; Table 5, 1 M sulfuric acid): 4.28E-6 cm^2 s^-1 | E½ vs. MSE, Volt [1, 7]: 0.17 Volt | Transfer Coefficient, an ([1]; Table 5): 0.418 | Exchange Current Density, (A cm^-2) ([1]; Table 5, 1 M sulfuric acid): 1.10E-5 A cm^-2 | Rate Constant, k° ([1]; Table 5): 0.000552 cm/s | Diffusion Coefficient (cm2/sec) ([1]; Table 7): 4.28E-6 cm2/sec | Exchange Current density (A/cm^2) ([1]; Table 7): 2.59E-5 A/cm^2 | Tafel Slope, mV/decade, dη/d(log I) ([1]; Table 7): 63 mV/decade | E½ vs. MSE, Volt ([1]; Table 7, 1 M sulfuric acid): 0.17 Volt | Standard Reduction Potentials: Experimental (E½ values) vs. NHE ([1]; 1 M sulfuric acid): 0.82 | solubility ([3]; Solubility, Table 5): 800 mM (≈ 152 mg/mL) | solubility ([3]; Solubility, Table 7): 800 mM (≈ 152 mg/mL)

CC(=O)Nc1ccc(O)cc1 [TYLENOL®, reference compound]
reversibility of the electrochemistry [4]: DMF does not enhance the reversibility

Hydroquinone disulfonic acid
Diffusion Coefficient (cm2/sec) ([1]; Table 7): 3.80E-6 cm2/sec and 4.04E-6 cm2/sec | Exchange Current density (A/cm^2) ([1]; Table 7): 3.47E-6 A/cm^2 | Tafel Slope, mV/decade, dη/d(log I) ([1]; Table 7): 123 mV/decade | E½ vs. MSE, Volt ([1]; Table 7, 1 M sulfuric acid): 0.45 Volt | solubility ([3]; Table 7): 1000 mM

Maleic hydrazide
Diffusion Coefficient (cm2/sec) ([1]; Table 7): 6.57E-6 cm2/sec | Exchange Current density (A/cm^2) ([1]; Table 7): 5.86E-6 A/cm^2 | Tafel Slope, mV/decade, dη/d(log I) ([1]; Table 7): 54 mV/decade | E½ vs. MSE, Volt ([1]; Table 7, 1 M sulfuric acid): 0.6 Volt

O=C1C=CC(=O)C(O)=C1 [2-hydroxyl 1,4-benzoquinone]
Electrode Potential vs. NHE, V [5]: 0.596 V

O=C1c2ccc(S(=O)(=O)O)cc2C(=O)c2cc(S(=O)(=O)O)ccc21 [2,7 Anthraquinone disulfonic acid]
Diffusion Coefficient (cm2/sec) ([1]; Table 7): 1.82E-6 cm2/sec | Exchange Current density (A/cm^2) ([1]; Table 7): 7.82E-7 A/cm^2 | E½ vs. MSE, Volt ([1]; Table 7, 1 M sulfuric acid): -0.57 Volt

Oc1ccc(O)cc1 [Hydroquinone]
Standard Reduction Potentials: E°(formal) Measured ([1]; 1 M sulfuric acid): 0.68 | Diffusion Coefficient, (cm^2 s^-1) ([1]; Table 5, 1 M sulfuric acid): 5.03E-6 cm^2 s^-1 | E½ vs. MSE, Volt [1, 7]: 0.02 Volt | Transfer Coefficient, an ([1]; Table 5): 0.508 | Exchange Current Density, (A cm^-2) ([1]; Table 5, 1 M sulfuric acid): 5.09E-5 A cm^-2 | Rate Constant, k° ([1]; Table 5): 0.00236 cm/s | Diffusion Coefficient (cm2/sec) ([1]; Table 7): 5.03E-6 cm2/sec and 5.4E-6 cm2/sec | Exchange Current density (A/cm^2) ([1]; Table 7): 9.17E-5 A/cm^2 | Tafel Slope, mV/decade, dη/d(log I) ([1]; Table 7): 110 mV/decade | E½ vs. MSE, Volt ([1]; Table 7, 1 M sulfuric acid): 0.02 Volt | Standard Reduction Potentials: Experimental (E½ values) vs. NHE ([1]; 1 M sulfuric acid): 0.67 | solubility ([3]; Solubility, Table 5): 530 mM (≈ 58.4 mg/mL) | solubility ([3]; Solubility, Table 7): 530 mM (≈ 58.4 mg/mL)

anthraquinone-2-sulfonic acid salt
reversible peak potential vs. MMO [6]: about -0.4 V

c1ccc2nccnc2c1 [Quinoxaline]
Diffusion Coefficient (cm2/sec) ([1]; Table 7): 1.36E-6 cm2/sec and 1.09E-6 cm2/sec | solubility ([3]; Solubility, Table 7): > 7000 mM

O=C1c2ccccc2C(=O)c2cc(S(=O)(=O)O)ccc21 [Anthraquinone-2-sulfonic acid, anthraquinone-2-sulfonic acid]
Standard Reduction Potentials: E°(formal) Measured ([1]; 1 M sulfuric acid): 0.15 | Diffusion Coefficient, (cm^2 s^-1) ([1]; Table 5, 1 M sulfuric acid): 3.71E-6 cm^2 s^-1 | E½ vs. MSE, Volt [1, 7]: -0.52 Volt | Transfer Coefficient, an ([1]; Table 5): 0.677 | Exchange Current Density, (A cm^-2) ([1]; Table 5, 1 M sulfuric acid): 1.96E-5 A cm^-2 | Rate Constant, k° ([1]; Table 5): 0.000225 cm/s | Diffusion Coefficient (cm2/sec) ([1]; Table 7): 3.35E-6 cm2/sec | Exchange Current density (A/cm^2) ([1]; Table 7): 1.95E-5 A/cm^2 | E½ vs. MSE, Volt ([1]; Table 7, 1 M sulfuric acid): -0.52 Volt | Diffusion Coefficient (cm2/sec) [1, 8]: 3.18E-6 cm2/sec and 3.35E-6 cm2/sec | Exchange Current density (A/cm^2) [1, 8]: 1.95E-5 A/cm^2 and 2.91E-5 A/cm^2 | Standard Reduction Potentials: Experimental (E½ values) vs. NHE ([1]; 1 M sulfuric acid): 0.13 | reversibility of the electrochemistry [4]: reversible | solubility ([3]; DMF/water, aqueous with cosolvent or surfactant or cyclodextrin, solubility in DMF/water): 700 mM (≈ 202 mg/mL) | solubility ([3]; Solubility, Table 5): 200 mM (≈ 57.7 mg/mL) | solubility ([3]; Solubility, Table 7): 200 mM (≈ 57.7 mg/mL) | solubility ([3]; water, aqueous solubility limit, aqueous): 200 mM (≈ 57.7 mg/mL)

O=C1c2cccc(S(=O)(=O)O)c2C(=O)c2c1cccc2S(=O)(=O)O [1,8 Anthraquinone disulfonic acid]
Diffusion Coefficient (cm2/sec) ([1]; Table 7): 3.39E-6 cm2/sec | Exchange Current density (A/cm^2) ([1]; Table 7): 1.60E-6 A/cm^2 | E½ vs. MSE, Volt ([1]; Table 7, 1 M sulfuric acid): -0.70 Volt

O=C1C=C(O)C(=O)c2ccccc21 [2-hydroxy-1,4-naphthaquinone]
Electrode Potential vs. NHE, V [5]: 0.357 V

O=C1c2ccccc2C(=O)c2c(O)cccc21 [1-hydroxy-9,10-anthraquinone]
Electrode Potential vs. NHE, V [5]: 0.131 V

O=C1c2ccccc2C(=O)c2c1cccc2S(=O)(=O)O [9,10-anthraquinone-1-sulfonic acid]
Electrode Potential vs. NHE, V [5]: 0.183 V

O=C1C(=O)C(Cl)=C(Cl)C(Cl)=C1Cl [Tetrachloro-1,2-benzoquinone]
Electrode Potential vs. NHE, V [5]: 0.823 V

O=C1C=CC(=O)C=C1 [1,4-benzoquinone (para), 1,4-benzoquinone]
Electrode Potential vs. NHE, V [5]: 0.700 V

O=C1c2ccccc2C(=O)c2ccccc21 [9,10-anthraquinone, reference compound]
Standard Reduction Potentials: E°(formal) Measured ([1]; 1 M sulfuric acid): Insoluble | Standard Reduction Potentials: Experimental (E½ values) vs. NHE ([1]; 1 M sulfuric acid): Insoluble | Electrode Potential vs. NHE, V [5]: 0.157 V

O=C1C=C(S(=O)(=O)O)C(=O)c2ccccc21 [1,4-naphthaquinone-2-sulfonic acid]
Electrode Potential vs. NHE, V [5]: 0.534 V

O=C1c2cccc(O)c2C(=O)c2c(O)cccc21 [1,8-dihydroxy anthraquinone, 1,8-dihydroxy anthraquinone]
reversible peak potential vs. MMO [6]: approximately -0.60 V

O=C1C=C(S(=O)(=O)O)C=C(S(=O)(=O)O)C1=O [1,2-benzoquinone-3,5-disulfonic acid, 1,2-benzoquinone-3,5-disulfonic acid]
Standard Reduction Potentials: E°(formal) Measured ([1]; 1 M sulfuric acid): 0.87 | kinetic reversibility from cyclic voltammograms ([1]; 1 M sulfuric acid, glassy carbon): rapid oxidation step, but a slower reduction step | Diffusion Coefficient, (cm^2 s^-1) ([1]; Table 5, 1 M sulfuric acid): 3.80E-6 cm^2 s^-1 | E½ vs. MSE, Volt [1, 7]: 0.45 Volt | Transfer Coefficient, an ([1]; Table 5): 0.582 | Exchange Current Density, (A cm^-2) ([1]; Table 5, 1 M sulfuric acid): 3.00E-6 A cm^-2 | Rate Constant, k° ([1]; Table 5): 0.000155 cm/s | Standard Reduction Potentials: Experimental (E½ values) vs. NHE ([1]; 1 M sulfuric acid): 1.1 | solubility ([3]; Solubility, Table 5): 1000 mM (≈ 268 mg/mL)

O=C1C=CC(=O)C=C1 [benzoquinone]
solubility [2]: 100 mM (≈ 10.8 mg/mL)

O=C1C=CC(=O)c2ccccc21 [1,4-naphthaquinone]
Electrode Potential vs. NHE, V [5]: 0.483 V

Reference: patent publication US20230113398A1, “INEXPENSIVE METAL-FREE ORGANIC REDOX FLOW BATTERY (ORBAT) FOR GRID-SCALE STORAGE” (UNIVERSITY OF SOUTHERN CALIFORNIA, priority 2013, published 2023)
